In patent US20230088704A1, “A PHARMACEUTICAL COMBINATION FOR THE TREATMENT OF A CANCER” (ABILITY PHARMACEUTICALS S.L., priority 2020, published 2023):

Tests used:
MT5 cells = test: Syngeneic pancreatic cancer model, ABTL0812 vs anti-PD1; assay type: in vivo, C57BL6 mice
Procedure: Methods: MT5 cells are a highly tumorigenic murine cell line mutated in KRAS and p53 initially derived from the pancreas of triple transgenic KRAS-p53-Cre (KPC) mice, carrying pancreatic duc-tal adenocarcinoma. […] C57BL6 mice were injected with 2×10^6 MT5 cells in one flank to induce tumor formation. […] The treatment groups were Vehicle, ABTL0812 and anti-PD1. ABTL0812 was administered by the oral route at 480 mg/kg/day. Anti-PD1 antibody was administered i.p. at 200 μg/dose every three days. Tumor volume and body weight were monitored 3 times a week. At the end of the treatments, mice were euthanized, tumors collected and single cell suspension was obtained by digesting tumors using digestion media containing collagenase and lipase and further processing with trypsin and DNAse. Additionally, spleens from treated mice were collected, minced using a strainer, and single cells were obtained after treatment with trypsin and DNAse. After cell suspensions were obtained, cancer cells and immune cells infiltrated withing tumors were stained using specific antibodies against different immune cell subsets and further analyzed using flow cytometry. The combinations used were: Th1 cells=CD45+ CD4+ CCR4− CXCR3+, Th2 cells=CD45+ CD4+ CCR4+ CXCR3−, Myeloid cells=CD45+ CD11b+ Ly6C+ and NKs cells=CD45+ NK1.1+.

JJN-3 cells = test: Cell viability (MTT) and combination index, ABTL0812 with bortezomib; assay type: cell-based; conditions: ABTL0812 5 μM, Bortezomib 0.5 nM, alone or combined; 48h
Procedure: (§1) Methods: JJN-3 and OPM2 cells were seeded in 24-well plates and treated with ABTL0812 (5 μM), bortezomib (0.5 and 1 nM respectively) or a combination of both drugs and left in the incubator for 48h (0.5% FBS). Cell viability was studied by the MTT assay and combination index was determined to evaluate a possible synergism.
(§2) Cell viability was evaluated in all cases by MTT assay and the Combination Index (CI), to evaluate synergism, was calculated according to the method of Chou and Talalay (Chou 2006; Chou 2010), as follows: CI=(D)1/(Dx)1+(D)2/(Dx)2, where CI<1, =1, and >1 indicate synergism, additive effect, and antagonism, respectively. In the denominator, (Dx)1 is for D1 “alone” that inhibits a system x %, and (Dx)2 is for D2 “alone” that inhibits a system x %.

OPM2 cells = test: as above; assay type: cell-based; conditions: ABTL0812 5 μM, Bortezomib 1 nM, alone or combined; 48h
Procedure: as §1, §2

Ishikawa cells = test: Human endometrial cancer xenograft, ABTL0812 with bevacizumab; assay type: in vivo; conditions: ABTL0812 oral 120 mg/kg/day; Bevacizumab ip 100 μg/dose every four days
Procedure: Methods: Mice were injected with 4×10^6 Ishikawa cells in one flank to induce tumor formation. […] Bevacizumab was administered ip at 100 μg/dose, every four days up to four administration. Tumor volume and body weight were monitored 3 times a week.

[1] = system: Human pancreatic cancer cells; test: Secretome of pancreatic cancer cells, chemokine antibody array; assay type: cell-based; conditions: ABTL0812 100 μM; 24 hours
Procedure: Methods: Human pancreatic cancer cells were treated with ABTL0812 at 100 μM for 24 hours and culture media was collected for its incubation using the RayBio C-Series Human Chemokine Antibody Array C1 (RayBiotec). Culture media was incubated with a membrane containing antibodies against 38 different chemokines. Afterwards, the membrane was incubated with secondary antibodies and further developed using HRP substrate.

U87MG cells = test: Human glioblastoma subcutaneous xenograft, ABTL0812 with radiotherapy; assay type: in vivo, nude mice
Procedure: (§3) Methods: Mice were injected subcutaneously with 1×10^6 U87MG or T98G cells in each flank to induce tumor formation. […] ABTL0812 was administered orally at 240 mg/kg 5 days/week and radiotherapy as single dose of 4 Gy administered at day 3.

T98G cells = test: as above; assay type: in vivo, nude mice
Procedure: as §3

[2] = system: human immortalized THP1 macrophages and human primary macrophages; test: Secretome of THP1 and primary macrophages, cytokine antibody array; assay type: cell-based
Procedure: Methods: Whole blood was collected from healthy donors, and circulating monocytes were purified using immunomagnetic separation. Monocytes were selected using anti-CD14 antibodies bound to magnetic beads, which were retained in the magnetic column and further eluted for culturing in vitro. Monocytes were differentiated to macrophages incubating with M-CSF1 at 20 ng/mL for 7 days. Once primary monocytes were differentiated to macrophages, these were polarized to M1 by incubation with LPS for 6 or 24 hours in the presence of ABTL0812 (50 or 100 μM). In parallel, differentiated macrophages were polarized to M2 by incubation with IL-4 and IL-13 for 24 hours in the presence of ABTL0812 (50 μM). THP-1 monocytes growing in suspension were differentiated to macrophages by incubation with PMA for 24 hours, inducing their attachment to the plates. Once THP-1 were differentiated to macrophages, these were polarized to M1 by incubation with LPS for 6 or 24 hours in the presence of ABTL0812 (50 μM). In parallel, differentiated macrophages were polarized to M2 by incubation with IL-4 and IL-13 for 24 hours in the presence of ABTL0812 (50 μM). The culture media from ABTL0812 treated M1, M2 and differentiated macrophages (M0) were incubated using the RayBio C-Series Human Cytokine Antibody Array C3 (RayBiotec). Culture media was incubated with a PVDF (Polyvinylidene fluoride) membrane containing antibodies against 42 different cytokines. After incubation of culture media, the membrane was incubated with secondary antibodies and further developed using HRP (Horseradish peroxidase) substrate.

MiaPaca2 cells = test: Cytotoxicity against MiaPaca2 cells; assay type: cell-based, human; conditions: previous results
LLC1 cells = test: Syngeneic lung cancer model, subcutaneous LLC1, survival; assay type: in vivo, C57BL6 mice; conditions: ABTL0812 oral 120 mg/kg/day, anti-PD1 i.p. 100 ug/dose every three days
Procedure: C57BL6 mice were injected with 0.25×10^6 LLC1 cells in one flank to induce tumor formation. […] Tumor volume and body weight were monitored 3 times a week. End point criteria was based on tumors over 800 mm3, or clinical signs of toxicity, distress or suffering indicative of animal euthanasia.

[3] = ABTL0812 oral 240 mg/kg 5 days/week
[4] = ABTL0812 oral 240 mg/kg 5 days/week + radiotherapy single dose 4 Gy at day 3
[5] = common in immortalized THP1 cells and in primary macrophages

In the case of `CCCCC/C=C\C/C=C\CCCCCCC(O)C(=O)O` (stereo not shown) [ABTL0812, COOH—CHOH—(CH2)6—(CH═CH—CH2)2—(CH2)3—CH3], the tumor volume (MT5 cells; ABTL0812 oral 480 mg/kg/day, anti-PD1 i.p. 200 μg/dose every three days) is reported as “significantly decreasing tumor volume compared with vehicle treatment group”, the “Th1/Th2 ratio in spleen” value (MT5 cells; flow cytometry) is reported as “increase in the Th1/Th2 ratio” and the “Myeloid cells within tumors” value (MT5 cells; flow cytometry, CD45+ CD11b+ Ly6C+) is reported as “increase of Myeloid cells within tumors”. The “percentage of NK cells within tumor” value (MT5 cells; flow cytometry, CD45+ NK1.1+) was “increase in the percentage of NK cells within tumor”, the cell death (JJN-3 cells) was “around 10%” and the cell death (OPM2 cells) was “around 20%”. The tumor volume (Ishikawa cells) was “significantly reduced tumor volume”, the “secreted CCL5” value [1] was “decrease” and the “secreted CXCL6” value [1] was “decrease”. The “secreted CXCL16” value [1] was “decrease”, the secreted angiogenin [1] was “decrease” and the “growth of subcutaneous tumors, single agent” value (U87MG cells; [3]) was “significantly decreased the growth of glioblastoma subcutaneous tumors”. For the same compound, the “growth of subcutaneous tumors, combination with radiotherapy” value (U87MG cells; [4]) was “significantly more efficacious than ABTL0812 or radiotherapy as single treatments”, the “growth of subcutaneous tumors, single agent” value (T98G cells; [3]) was “significantly decreased the growth of glioblastoma subcutaneous tumors” and the “growth of subcutaneous tumors, combination with radiotherapy” value (T98G cells; [4]) was “significantly more efficacious than ABTL0812 or radiotherapy as single treatments”. The “secreted IL-1β” value ([2]; ABTL0812 50 or 100 μM) was “upregulation”, the “secreted TNF-α” value ([2]; ABTL0812 50 or 100 μM) was “upregulation” and the “secreted CCL7” value [2, 5] was “inhibited”. The “secreted CCL8” value [2, 5] was “inhibited”, the “secreted CCL17” value [2, 5] was “inhibited” and the “secreted CCL22” value [2, 5] was “inhibited”. For the same compound, the “secreted IL-10” value [2, 5] was “inhibited”, the IC50 (MiaPaca2 cells) was 50 µM and the survival (LLC1 cells; after 9 days of treatment) was 43%. It also gave a survival (LLC1 cells; after 14 days of treatment) of 15%.
